Data from patent publication US12390437B2, “Itaconic acid derivatives and uses thereof intreating an inflammatory disease or a disease associated with an undesirable immune response” (Sitryx Therapeutics Limited, priority 2019, dated 2025).

Legend:
hepatocytes = assay: Hepatocyte stability assay (human); assay type: in vitro ADME; conditions: 10 μM compound, 0.5×10^6 cells/mL, 60 minutes
Outline: (§1)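 Cryopreserved hepatocytes (viability >70%), 0.5×10^6 cells/mL in Leibovitz buffer, incubated at 37 °C with 10 μM compound (0.1% DMSO), duplicates; buffer-only incubations as negative control. Samples at 0-60 min quenched in acetonitrile, parent measured by LC-MS/MS; half-life and Clint (μL min^−1 10^−6 cells) from ln % remaining versus time slope.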

[1] = Hepatocyte stability assay (human); assay type: in vitro ADME; conditions: cryopreserved hepatocytes, 10 μM compound, 0.5×10^6 cells/mL, 60 minutes, read-out: T½
Outline: as §1

[2] = tested on: IL-6 cytokine output from THP-1s; assay: THP-1 AlphaLISA IL-6 cytokine assay; assay type: cell-based, human; conditions: Homo sapiens; PMA-differentiated THP-1 cells, LPS 24 hr then Nigericin 1 hour
Outline: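 Cells are differentiated with PMA over 72 h, switched to 1% FBS medium and treated with compound for 30 min before LPS stimulation for 24 h. Nigericin is added for a final hour, and secreted cytokine is measured by AlphaLISA, with IC50 fitted from percent inhibition.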

[3] = Mouse pharmacokinetic study, oral administration; assay type: in vivo; conditions: male, C57BL/6, mouse, plasma, po, 100 mg/kg, plasma, male C57BL/6 mice, oral gavage 100 mg/kg; for concentration at 0.25 h: read-out: Parent compound concentrations following oral administration, Time 0.25 h; for concentration at 0.5 h: read-out: Parent compound concentrations following oral administration, Time 0.5 h; for concentration at 1 h: read-out: Parent compound concentrations following oral administration, Time 1 h; for concentration at 2 h: read-out: Parent compound concentrations following oral administration, Time 2 h; for concentration at 4 h: read-out: Parent compound concentrations following oral administration, Time 4 h; for concentration at 8 h: read-out: Parent compound concentrations following oral administration, Time 8 h; for concentration at 24 h: read-out: Parent compound concentrations following oral administration, Time 24 h; for concentration at 0.083 h: read-out: Parent compound concentrations following oral administration, Time 0.083 h; for concentration at 6 h: read-out: Parent compound concentrations following oral administration, Time 6 h
Outline: (§2)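 Male C57BL/6 mice (6-8 weeks, fed ad libitum); IV tail-vein 10 mg/kg in 10% DMSO/25% HP-β-CD, sampled 3 min–8 h; oral gavage 100 mg/kg in 5% DMSO/0.5% HPMC+0.1% Tween 80, sampled 5 min–24 h. N=3/time point, semi-serial facial-vein bleeds into K2EDTA; plasma levels by LC-MS/MS.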

[4] = Mouse pharmacokinetic study, intravenous dosing; assay type: in vivo; conditions: male, C57BL/6, mouse, iv, plasma, 10 mg/kg i.v., read-out: Parent compound concentration following intravenous administration
Outline: as §2

Row | Structure (SMILES) | CIint (μL min^−1 10^−6 cells) (hepatocytes) | half-life at 10 μM [1] [min] | concentration at 0.25 h [3] [ng/mL] | concentration at 0.5 h [3] [ng/mL] | concentration at 1 h [3] [ng/mL] | concentration at 2 h [3] [ng/mL] | concentration at 4 h [3] [ng/mL] | concentration at 8 h [3] [ng/mL] | concentration at 24 h [3] [ng/mL] | concentration at 0.05 h [4] [ng/mL] | concentration at 0.133 h [4] [ng/mL] | concentration at 0.25 h [4] [ng/mL] | concentration at 0.5 h [4] [ng/mL] | concentration at 1 h [4] [ng/mL] | concentration at 2 h [4] [ng/mL] | concentration at 4 h [4] [ng/mL] | concentration at 6 h [4] [ng/mL] | concentration at 8 h [4] [ng/mL] | concentration at 0.083 h [3] [ng/mL] | concentration at 6 h [3] [ng/mL] | further results
1 | C=C(CC(=O)OC1CCCCC1)C(=O)OCCC(=O)O [Example 87, 3-((4-(cyclohexyloxy)-2-methylene-4-oxobutanoyl)oxy)propanoic acid] | 11 | 136 | 35300 | 15900 | 8520 | 1460 | 198 | 31 | < 14 |  |  |  |  |  |  |  |  |  |  |  | IC50 [2]: 100 µM
2 | C=C(CC(=O)O[C@H](C)CCCCCC)C(=O)OCc1nn[nH]n1 [Example 161, (R)-1-((2H-tetrazol-5-yl)methyl) 4-(octan-2-yl) 2-methylenesuccinate] | 55 | 22 | 4340 | 1900 | 1260 | 727 | 186 | 16 | < 4 | 8890 | 2380 | 846 | 343 | 90 | 5.1 | < 4 | < 4 | < 4 | 7020 | 108 | 
3 | C=C(CC(=O)OC1CCCCC1)C(=O)OCC(=O)O [Example 91, 2-((4-(cyclohexyloxy)-2-methylene-4-oxobutanoyl)oxy)acetic acid] | 4 | 352 | 8860 | 6240 | 1920 | 450 | 33 | 19 | 13 |  |  |  |  |  |  |  |  |  |  |  | IC50 [2]: 33.8 µM
4 | C=C(CC(=O)OCCCOc1ccccc1)C(=O)OCCC(=O)O [Example 86, 3-((2-methylene-4-oxo-4-(3-phenoxypropoxy)butanoyl)oxy)propanoic acid] | 44 | 31 | 41 | 943 | 686 | 149 | 19 | < 3 | < 3 |  |  |  |  |  |  |  |  |  |  |  | IC50 [2]: 15.7 µM
5 | C=C(CC(=O)OC1CCCCCCC1)C(=O)OC(C)c1nnn[nH]1 (stereo not drawn) [Example 133, 1-(1-(1H-tetrazol-5-yl)ethyl) 4-cyclooctyl 2-methylenesuccinate] | 48 | 30 | 9940 | 4270 | 1100 | 527 | 799 | 101 | < 8 | 11000 | 4570 | 1950 | 315 | 33 | < 8 | < 8 | < 8 | < 8 | 9360 | 146 | 
6 | C=C(CC(=O)O[C@@H](C)CCCCCC)C(=O)OCCc1nnn[nH]1 [Example 129, (S)-1-(2-(1H-tetrazol-5-yl)ethyl) 4-octan-2-yl 2-methylenesuccinate] | 55 | 108 | 1030 | 109 | 255 | 61 | 13 | 11 | 3.5 | 2920 | 872 | 309 | 96 | 7.7 | < 1.6 | < 1.6 | < 1.6 | < 1.6 | 305 | 16 | 

Now from value to compound, other results behind:

Row | CIint (μL min^−1 10^−6 cells) (hepatocytes) | half-life at 10 μM [1] [min] | concentration at 0.25 h [3] [ng/mL] | concentration at 0.5 h [3] [ng/mL] | concentration at 1 h [3] [ng/mL] | concentration at 2 h [3] [ng/mL] | concentration at 4 h [3] [ng/mL] | concentration at 8 h [3] [ng/mL] | concentration at 24 h [3] [ng/mL] | concentration at 0.05 h [4] [ng/mL] | concentration at 0.133 h [4] [ng/mL] | concentration at 0.25 h [4] [ng/mL] | concentration at 0.5 h [4] [ng/mL] | concentration at 1 h [4] [ng/mL] | concentration at 2 h [4] [ng/mL] | concentration at 4 h [4] [ng/mL] | concentration at 6 h [4] [ng/mL] | concentration at 8 h [4] [ng/mL] | concentration at 0.083 h [3] [ng/mL] | concentration at 6 h [3] [ng/mL] | Structure (SMILES) | further results
7 | 12 | 120 | 38400 | 40600 | 10100 | 4420 | 4400 | 25 | 8.1 | 37200 | 21900 | 8930 | 1660 | 476 | 66 | 12 | < 4 | < 4 | 55000 | 441 | C=C(CC(=O)O[C@@H](CC)CCCCC)C(=O)OCC(=O)O [Example 170, (S)-2-(2-methylene-4-(octan-3-yloxy)-4-oxobutanoyloxy)acetic acid] | 
8 | 16 | 109 | 45600 | 31500 | 8930 | 2120 | 920 | 19 | 5.6 | 28800 | 10700 | 4040 | 1450 | 134 | 16 | 4.1 | < 4 | < 4 | 52900 | 55 | C=C(CC(=O)OC(C)(C)CCCCC)C(=O)OCC(=O)O [Example 193, 2-((2-methylene-4-((2-methylheptan-2-yl)oxy)-4-oxobutanoyl)oxy)acetic acid] | 
9 | 32 | 54 | 60700 | 37900 | 25200 | 8740 | 5440 | 41 | 6.6 | 36600 | 21400 | 11300 | 2910 | 400 | 86 | 26 | < 4 | < 4 | 47000 | 79 | C=C(CC(=O)OC(C)(C)CCCCCC)C(=O)OCC(=O)O [Example 192, 2-((2-methylene-4-((2-methyloctan-2-yl)oxy)-4-oxobutanoyl)oxy)acetic acid] | 
